According to BindingDB's records for doi:10.1021/acs.jmedchem.1c00256 (University of Strasbourg, 2021):

Assays:
[1] = target: Prolactin-releasing peptide receptor PRLHR (Homo sapiens) (UniProt P49683); experiment: Displacement of [3H]-PrRP-20 from human PrRP receptor expressed in CHO cells by TopCount scintillation counting method
[2] = target: KiSS-1 receptor (Homo sapiens, UniProt Q969F8); experiment: Displacement of [125I]-Kp-10 from human Kiss1 receptor by TopCount scintillation counting method
Chain of KiSS-1 receptor (Q969F8 whole entry): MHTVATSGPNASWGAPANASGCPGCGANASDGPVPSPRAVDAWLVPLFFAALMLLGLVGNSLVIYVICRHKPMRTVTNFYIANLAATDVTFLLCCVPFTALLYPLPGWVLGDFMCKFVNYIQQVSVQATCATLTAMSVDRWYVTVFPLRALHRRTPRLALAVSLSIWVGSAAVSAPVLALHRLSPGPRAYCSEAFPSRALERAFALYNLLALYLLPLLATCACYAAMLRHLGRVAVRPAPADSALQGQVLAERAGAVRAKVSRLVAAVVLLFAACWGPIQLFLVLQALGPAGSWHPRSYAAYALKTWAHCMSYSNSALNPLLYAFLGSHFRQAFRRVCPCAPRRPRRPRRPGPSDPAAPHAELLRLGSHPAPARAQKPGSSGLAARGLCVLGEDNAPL

Chain of Prolactin-releasing peptide receptor PRLHR (Homo sapiens) (P49683 whole entry, looked up): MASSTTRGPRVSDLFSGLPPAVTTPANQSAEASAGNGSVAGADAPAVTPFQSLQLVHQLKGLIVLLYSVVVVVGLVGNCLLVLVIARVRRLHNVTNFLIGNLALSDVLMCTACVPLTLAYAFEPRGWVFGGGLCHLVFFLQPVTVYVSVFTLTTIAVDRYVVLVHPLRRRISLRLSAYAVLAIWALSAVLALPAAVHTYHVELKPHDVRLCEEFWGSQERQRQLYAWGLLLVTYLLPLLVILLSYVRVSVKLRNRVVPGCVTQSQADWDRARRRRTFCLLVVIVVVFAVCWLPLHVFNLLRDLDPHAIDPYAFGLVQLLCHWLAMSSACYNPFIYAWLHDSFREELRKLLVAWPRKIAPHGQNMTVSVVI

`N=C(N)NCCC[C@@H](NC(=O)C=C(c1ccccc1)c1ccccc1)C(=O)N[C@H](Cc1ccccc1)C(N)=O` showed a Ki [1] greater than 50000 nM.

Work on `CC(C)C[C@H](NC(=O)CNC(=O)[C@H](Cc1ccccc1)NC(=O)[C@H](CO)NC(=O)[C@H](CC(N)=O)NC(=O)[C@H](Cc1c[nH]c2ccccc12)NC(=O)[C@H](CC(N)=O)NC(=O)[C@@H](N)Cc1ccc(O)cc1)C(=O)N[C@@H](CCCNC(=N)N)C(=O)N[C@@H](Cc1ccccc1)C(N)=O` [Kisspeptin-10] yielded a Ki [2] of 0.062 nM.

H-TPDINPAWYASRGIRPVGRF-NH2 gave a Ki [1] of 2.1 nM.
